What all share (assay type): cell-based, human
Experiment [1] deals with tumor cells. The experiment can be described thus: ER UPR markers (Western blotting, Xbp1 splicing, RT-qPCR). The note with it: for ER UPR markers (CHOP, C/EBPβ, Grp78): tumor cells, Western blotting; for effect on Gamitrinib-induced AMPK phosphorylation and ER stress/UPR markers: agent added to Gamitrinib.
The test system of a further experiment is PC3 cells. The experiment is described as follows: ER stress luciferase-promoter reporter assay. The note with it: PC3, 20 h. The procedure:
In another series of experiments, PC3 cells were transfected with control or Grp78-directed siRNA, and analyzed for cell viability after 24 h by an MTT assay. For promoter analysis, PC3 cells were plated in triplicate onto 48-well plates at 1.4×10^4 cells/well, and cotransfected with Firefly Luciferase-reporters for IRE1, ATF6, PERK or CHOP and a constitutive reporter (pTK-Renilla Luc) in a 10:1 ratio using X-tremeGENE reagent (Roche). After 24 h, cells were treated with vehicle, Gamitrinib, tunicamycin or 2-DG and analyzed after 20 h for Firefly and Renilla luciferase activity using a Dual Luciferase Reporter Assay System (Promega). Transfection of plasmid DNAs was carried out with lipofectamine 2000 (Invitrogen) according to published protocols. A PPIase-defective CypD H168Q mutant cDNA was generated by Quick-Change site-directed mutagenesis (Stratagene) using primers 5′-[…]-3′ (forward) and 5′-[…]-3′ (reverse) (mutated sequences are bolded). The inserted mutation (bolded) was confirmed by DNA sequencing, and cloned in a pcDNA3.0 expression vector (Invitrogen) for reconstitution experiments in CypD−/− MEFs.
(Reporter assays use an easily measured gene product as a stand-in for the process of interest.)

Experiment [2] relates to AMP-activated kinase (AMPK). The experiment is described as follows: AMPK phosphorylation in tumor cells, Western blotting. Particulars: tumor cells. (Immunoblotting shows a protein as a band on a membrane.)
The next experiment relates to mTORC1. The experiment can be described thus: mTORC1 signaling in tumor cells, Western blotting.
For experiment [3], the system named is tumor cells. The experiment can be described thus: Autophagy (LC3 conversion, LC3-CFP puncta). On the procedure: LN229 cells were transfected with various siRNAs, and mixed after 24 h with plasmid encoding cyan fluorescent protein (CFP) fused to human […] (LC3) cDNA in the presence of Lipofectamine 2000 Transfection Reagent (Invitrogen). After 48 h, transfected cells were fixed in 4% paraformaldehyde for 15 min at 37° C., washed, and examined by fluorescence microscopy (Nikon, E600). The numbers of CFP-LC3 punctate dots per cell was determined from three independent experiments. A minimum of 50 CFP-LC3-positive cells assessed from at least ten random fields per sample were counted in triplicate per each condition.
(§1) Samples were imaged using a Leica TCS SP2 confocal microscope. For determination of autophagy, cells under the various conditions tested were harvested after 12 h, and analyzed with an antibody to […] (LC3) by Western blotting.

A further experiment has as its system LN229 cells. The experiment is described as follows: Cell viability by MTT. The procedure:
Various cell types were seeded in triplicate onto 96-well plates at 4×10^3 cells/well, treated with vehicle, Gamitrinib or 17-AAG (0-20 μM) for 12 h, and analyzed for changes in metabolic activity by an MTT assay. For determination of apoptosis, LN229 cells ([…]) were labeled for annexin V and propidium iodide (PI) (BD Biosciences), and analyzed by multiparametric flow cytometry (BD).

In experiment [4] the test system is multiple tumor cell types. The experiment is described as follows: ATP production in tumor cells (luciferin-luciferase). The procedure: Intracellular ATP concentrations were measured by the luciferin—luciferase method using an ATP measuring kit (Biochain). The ATP concentration in each extract was measured with a microplate luminometer (Beckman Coulter) against standard ATP solutions used as reference. In some experiments, PC3 or LN229 cells were preincubated with sodium pyruvate for 7 h in the presence of vehicle or Gamitrinib before determination of ATP production.

Experiment [5] concerns V600E mutant BRAF melanoma cells. The experiment is described as follows: AMPK and autophagy signaling in mutant BRAF melanoma cells.
Excerpt: (§2) Human glioblastoma LN229, prostate adenocarcinoma PC3 or LNCaP cells, or normal NIH3T3 fibroblasts were obtained from the American Tissue Culture Collection (ATCC, Manassas, Va.), and maintained in culture according to the supplier's specifications. The following wild type (WT) BRAF N-Ras mutant melanoma cells WM852 and WM1366, and melanoma cells carrying a V600E activating mutation in the BRAF oncogene, 451Lu, Me11617 and WM983B were used in this study. WT or CypD knockout Mouse Embryonic Fibroblasts (MEFs, CypD−/−) were characterized earlier 40. In some experiments, CypD−/− MEFs were stably transfected with control plasmid, WT CypD or peptidyl prolyl isomerase (PPIase)-deficient H168Q CypD mutant cDNA, and analyzed for differential recruitment of HK-II to mitochondrial or cytosolic fractions.
(§3) For Western blotting, protein lysates were prepared from the different cell types in RIPA Buffer (150 mM NaCl, 1.0% Triton X-100, 0.5% sodium deoxycholate, 0.1% SDS, 50 mM Tris, pH 8.0) containing EDTA-free Protease Inhibitor Cocktail (Roche) and Phosphatase Inhibitor Cocktail 2 and 3 (Sigma Aldrich). Equal amounts of protein lysates were separated by SDS gel electrophoresis, transferred to PVDF membranes and incubated with primary antibodies of various specificities. Protein bands were detected by chemiluminescence.
as §1

For a further experiment, the system named is hexokinase. The experiment can be described thus: Hexokinase activity in mitochondrial fractions of treated cells. The note with it: LN229 mitochondrial fractions, 5 h. The procedure: HK activity in LN229 cells was measured as the total glucosephosphorylating activity using a standard G6PDH-coupled assay kit (BioVision). Mitochondria isolated from Gamitrinib- or 17-AAG-treated LN229 cells, or cultures transfected with various siRNAs were homogenized in cold PBS, followed by centrifugation at 1000 g for 10 min at 4° C. HK activity was determined by analysis of G6P-dependent conversion of NADP to NADPH in the presence of excess […] in the presence of 2 mM glucose, and quantification of absorbance at 450 nm. All assays were performed at 25° C. under conditions of linear HK-limited NADPH formation.

For a further experiment, the system named is WT BRAF melanoma cells. The experiment can be described thus: AMPK and autophagy signaling in WT BRAF melanoma cells. Particulars: WT BRAF melanoma cells.
Excerpt: as §2, §3, §1

Regarding tunicamycin, the “IRE-1 and CHOP expression” value with tumor cells [1] (control ER stressor) was “comparable induction of IRE-1 and CHOP expression”. Also, in the experiment on PC3 cells, the “minimal CHOP promoter activity” value is listed as “transcriptionally induced”; the “transcriptional activation of response elements of IRE-1, ATF-6 and PERK” value was “comparably induced transcriptional activation”.
Consider `N#CC(C#N)=NNc1cccc(Cl)c1` [CCCP, carbonyl cyanide 3-chlorophenylhydrazone, reference compound], for which the AMPK phosphorylation result in [2] is reported as “time-dependent phosphorylation of AMPK”. Moreover, the “phosphorylation of mTOR, 4EBP1 and p70S6 (mTORC1)” value (shortened to “phosphorylation of mTOR”) in the experiment with mTORC1 is “inhibition of 4EBP1 phosphorylation”. Further, the “autophagy (LC3-II conversion)” value in the experiment on tumor cells [3] is recorded as “stimulation of LC3-II conversion”. Besides, the “ER UPR markers (CHOP, C/EBPβ, Grp78)” value with tumor cells [1] was “upregulation of CHOP, C/EBPβ, and Grp78”.
With `Cn1cnc(N)c2ncnc1-2` [3-MA, 3-methyladenine], the “tumor cell killing mediated by sub-optimal concentrations of Gamitrinib” value in the experiment on LN229 cells (agent added to Gamitrinib) is “enhanced tumor cell killing mediated by sub-optimal concentrations of Gamitrinib”.
For `CC(=O)N[C@@H](CS)C(=O)O` [NAC, N-acetyl-L-cysteine, reference compound], the “effect on Gamitrinib-induced AMPK phosphorylation and ER stress/UPR markers” value in the experiment on tumor cells [1] is “did not affect”.
As to `CC(=O)C(=O)[O-].[Na+]` [sodium pyruvate, reference compound], the “rescue of ATP production in Gamitrinib-treated tumor cells” value in experiment [4] (exogenous addition, PC3 or LN229, 7 h) is listed as “failed to rescue ATP production”. Also, the “effect on Gamitrinib-induced AMPK phosphorylation and ER stress/UPR markers” value with tumor cells [1] is listed as “did not affect”.
For `N#CC(=C(/N)Sc1ccccc1N)/C(C#N)=C(\N)Sc1ccccc1N` [U0126, reference compound], the “AMPK phosphorylation after Gamitrinib treatment” value in experiment [5] (mutant BRAF melanoma cells, agent added to Gamitrinib) is given as “partially restored AMPK phosphorylation”.
Regarding `C=CCNC1=C2C[C@@H](C)C[C@H](OC)[C@H](O)[C@@H](C)/C=C(\C)[C@H](OC(N)=O)[C@@H](OC)/C=C\C=C(/C)C(=O)NC(=CC1=O)C2=O` [17-AAG, 17-allylamino demethoxygeldanamycin, reference compound], in experiment [4] (tumor cell types, non-cytotoxic concentrations, 5 h), the ATP production entry is reported as “had no effect on ATP production”. Also, the hexokinase activity entry in the experiment on hexokinase is reported as “had no effect”. For the same compound, the AMPK phosphorylation result is given as “not” in experiment [2] and “had no effect on AMPK activation” in the experiment on WT BRAF melanoma cells. Also, the “phosphorylation of mTOR” value in the experiment on mTORC1 was “had no effect”. For the same compound, in the experiment on LN229 cells (17-AAG plus 3-MA vs each treatment alone), the “tumor cell viability, combination with 3-MA” value is on record as “did not decrease tumor cell viability compared to each treatment alone”. The AMPK activation entry in [5] (BRAF mutant melanoma cells) is on record as “had no effect on AMPK activation”.
As to `O=CC[C@@H](O)[C@H](O)[C@H](O)CO` [2-DG, 2-deoxy-D-glucose], the AMPK phosphorylation entry in experiment [2] is “AMPK activation”. In addition, the “phosphorylation of mTOR” value with mTORC1 was “suppression of mTORC1 4EPB1 and p70S6 phosphorylation”. Also, the “ER UPR markers (CHOP, C/EBPβ, Grp78)” value with tumor cells [1] is “concentration (FIG. 14b)- and time (FIG. 14c)-dependent upregulation of ER UPR”. In the experiment with PC3 cells, the “minimal CHOP promoter activity” value is given as “transcriptionally induced”; the “transcriptional activation of response elements of IRE-1, ATF-6 and PERK” value is “comparably induced transcriptional activation”.
